Results on two molecules are retold here after PMC6895199, “A new antiviral scaffold for human norovirus identified with computer-aided approaches on the viral polymerase” (Scientific Reports, 2019).

“And” between values parts separate entries of the source, which are not always exact repeats. Identical values can stand only once. Like-named read-outs stand apart in the source and are kept apart here.

A short description of data set [1]: Cytotoxicity by the MTS method on uninfected cells. Format: cell-based. Particulars: mouse, uninfected RAW 264.7 cells, Table 2, at least three independent experiments. The protocol:
Cytotoxicity: The cytotoxicity of the Compounds was evaluated by the MTS method, by exposing uninfected cells to the same concentrations of compounds for 3 days. The %cell viability was calculated as (ODtreated/ODCC) × 100, where ODCC is the OD of uninfected untreated cells and ODtreated are uninfected cells treated with compound. The CC50 was defined as the compound concentration that reduces the number of viable cells by 50%[34].
A general note: Formazan colour is commonly taken as a measure of viable cells.

A further data set relates to MNV. As to the kind of experiment: MNV CPE reduction assay (MTS) in RAW 264.7 cells. In kind it is cell-based, mouse norovirus (MNV-1.CW1). The following applies: Norovirus, RAW264.7, in Mus musculus, Table 2, RAW 264.7, range 0.6–100 µM, at least three independent experiments. In short, it runs like this: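 MNV-1.CW1-infected RAW 264.7 cells treated at eight concentrations (0.6–100 µM), 2′-C-methylcytidine as positive control. Viability read by MTS/PMS at OD 498 nm after 2 h; %CPE reduction normalised to uninfected and infected untreated cells, EC50 = concentration protecting 50% of cells from virus-induced CPE.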

The nature of data set [2]: Crystal formation seen in the cell-based assays. Format: physicochemical. The following applies: observed with the HuNoV GI replicon results. In general terms: Replicon systems follow genome replication, usually without infectious particles.
The test system of a further data set is HuNoV GI.1 replicon. Nature of the data set: HuNoV GI replicon assay (HGT-NV cells, qRT-PCR). In kind it is cell-based, human norovirus GI.1. As to the method: Given that in this system the gene encoding for the major capsid protein is replaced by a neomycin resistance gene, no new virus particles will be produced but the non-structural proteins are expressed and the replication of the genomic RNA can be studied.
Cells and virus: MNV (virus strain MNV-1.CW1) was propagated in RAW 264.7 cells grown in DMEM (Life Technologies, Gent, Belgium) supplemented with 10% or 2% FBS, 2 mM L-glutamine, 20 mM HEPES, 0.075 g/L sodium bicarbonate, 1 mM sodium pyruvate, 100 U penicillin/mL and 100 µg/mL streptomycin at 37 °C in a humidified atmosphere of 5% CO2. The human norovirus GI.1 replicon harboring gastric tumor-1 cell line (HGT-NV) (kindly provided by Dr. Ian Goodfellow, University of Cambridge) was maintained in DMEM supplemented with 10% FBS, 2mM L-glutamine, 0.075 g/L sodium bicarbonate and 1.0 mg/ml of Geneticin (G418; Life Technologies), at 37 °C in a humidified atmosphere of 5% CO2[34].
Antiviral assay with the HGT-NV replicon: The inhibitory effect of Compounds on human norovirus replication was assessed by quantification of the levels of HuNoV GI replicon RNA and of the reference (housekeeping) gene β-actin mRNA [by quantitative reverse transcription polymerase chain reaction (qRT-PCR)]. To this end, HGT cells (2000 cells/well) were seeded in 96-well plates, in complete DMEM without the selection marker G418. Following an incubation period of 24 h, a serial dilution of rupintrivir was added to the cultures. After 72 h of incubation, cell monolayers were washed with phosphate-buffered saline (PBS) and collected for quantification of RNA load by qRT-PCR. Intracellular RNA was extracted from cells using the cell-to-cDNA lysis buffer (Ambion, Life Technologies). For detection of HuNoV GI replicon RNA, forward (5′-CCG GCT ACC TGC CCA TTC-3′), reverse (5′-CCAGATCATCCTGATCGACAAG-3′) primers and probe (5′-FAM-ACATCGCATCGAGCGAGCACGTAC-TAMRA-3′) for the neomycin gene were used. For detection of β-actin mRNA, forward (5′-GGCATCCACGAAACTACCTT-3′), reverse (5′-AGCACTGTGTTGGCGTACAG-3′) primers and probe (5′-HEX-ATCATGAAGTGTGACGTGGACATCCG-BHQ1–3′) were used. One-step qRT-PCR was performed in a 20 µL reaction mixture containing 10 µl 2X iTaq Universal SYBR® Green one step reaction mix (Bio-rad, California, USA), 5.17 µl RNAse free water, 0.5 µl of iScript reverse transcriptase (Bio-rad, California, USA), 4 µl of the template RNA and either 300 nM of HuNoV GI replicon primers and probe, 300 nM of β-actin primers and 200 nM of probe. Cycling conditions were: reverse transcription at 50 °C for 10 min, initial denaturation at 95 °C for 3 min, followed by 40 cycles of denaturation at 95 °C for 15 s, annealing and extension at 60 °C for 30 seconds (Roche Lightcycler®96, Roche Diagnostics, Belgium). To determine the relative expression levels of HuNoV GI replicon RNA, β-actin was used as a normalizer and ratios were calculated using the Pfaffl method. The Expression Ratio (HuNoV GI Replicon/β-actin) was calculated as: Expression Ratio = (E HuNoV)^ΔCT, HuNoV (CC – TC)/(Eβ-actin)^ΔCT, β-actin (CC – TC), where E HuNoV and Eβ-actin represent the amplification efficiency (E = 10^–1/slope) for the HuNoV GI replicon and β-actin qRT-PCR reactions, respectively. ΔCT, HuNoV (CC – TC) is the Ct of untreated control cells (CC) minus the Ct of cells treated with a compound concentration (TC) obtained with HuNoV GI replicon primers and probe. ΔCT, β-actin (CC – TC) is the Ct of untreated control cells (CC) minus the Ct of cells treated with a compound concentration (TC) obtained with β-actin primers and probe. Efficiency values (E HuNoV and Eβ-actin) were determined for each qRT-PCR reaction.

The next data set concerns HuNoV (GII.4) RdRp. Nature of the data set: Counter-screen gel-shift assay of primed elongation activity (PE44-NoV template). Format: biochemical, human norovirus. Particulars: fixed concentration of 100 μM. The protocol: To further confirm RdRp inhibition and exclude any potential false positives from the first fluorescence RdRp assay, the eight molecules were then assessed using a gel-shift enzyme activity assay at a fixed concentration of 100 μM, following a procedure previously adopted by our research group.
Figure 5 A counter-screen gel-shift assay was used to confirm HuNoV (GII.4) RdRp inhibitory activity of compounds 2, 3, 34 and 35 (A), 4, 5, 6 (B) and 7 (C). The eight compounds were examined for inhibition of primed elongation activity. PE44-NoV RNA templates (32 nucleotides) were extended (44 nucleotides) by the RdRp in the absence of any test compounds (0.5% DMSO [vol/vol] negative control) or with test compounds at a fixed concentration of 100 μM. […] Full-length gels are presented in Supplementary Fig. S3.
Fluorescent RdRp activity assays were carried out as previously described[12],[29]. Briefly, RdRp activity was quantified by monitoring the formation of double-stranded RNA (dsRNA) from a single stranded homopolymeric template, poly(C) (Sigma Aldrich), using the fluorescent dye PicoGreen (Life Technologies, Carlsbad, CA, USA). RdRp assays were performed in 384-well plates, and each reaction mixture contained 400 ng enzyme, 45 μM GTP, 10 ng/μL poly(C) RNA, 2.5 mM MnCl2, 5 mM dithiothreitol, (DTT), 0.01% bovine serum albumin (BSA), and 0.005% Tween 20 in 20 mM Tris-HCl, pH 7.5, with a final reaction volume of 25 μL. The PPNDS and compound 1 were used as a positive controls. RdRps were incubated for 10 mins at 30 °C in the presence of the test compounds or the compound vehicle DMSO (0.5% vol/vol) before addition into the reaction mixture, which was then allowed to run 15 min at 30 °C then terminated with 10 mM EDTA, followed by PicoGreen staining and dsRNA quantitation. GraphPad Prism V6.05 (La Jolla, CA, USA) was used to plot the IC50 values. A secondary gel-based polymerase activity assay was used as a counter-screen as described below, to exclude the possibility of RdRp activity enhancement. Primed elongation activity was examined in a gel-based assay as previously described[12],[29] using the RNA template (PE44-NoV). Gels were imaged using BioRad (Hercules, CA, U.SA) Geldoc Universal Hood II, running BioRad Image Lab software, V4.1, build 16.
(The purpose of a counterscreen is to sort out artefacts and off-target activity.)

For data set [3] the following is noted: similar MNV cell-based assay; cited from earlier work.

By CC50 is commonly meant the concentration that lowers cell viability or growth by half. In general, EC50 refers to the concentration at which the effect is half-maximal. With `O=C(NC(=S)Nc1ccc(N2CCN(S(=O)(=O)c3ccccc3)CC2)cc1)c1ccccc1` [Compound 60, N-((4-(4-(Phenylsulfonyl)piperazin-1-yl)phenyl)carbamothioyl)benzamide], the CC50 at 3 days in data set [1] was greater than 100 µM. Besides, the EC50 with MNV was 66.6 ± 12.3 µM; in the data set on HuNoV GI.1 replicon (Norwalk virus, HGT-1, 72 h, read-out: EC50 values (column head printed 'M'), HuNoV GI replicon in HGT-1 cells, replicon RNA by qRT-PCR) it was 8 µM; in the data set with HuNoV GI.1 replicon (read-out: EC50 values (column head printed 'M'), HuNoV GI replicon in HGT-1 cells, 72 h, replicon RNA by qRT-PCR), 8.5 ± 2.1 µM. In data set [2], the “concentration from which crystals form” value is no less than 25 µM. The “EC50 values (column head printed 'M')” value in the data set with HuNoV GI.1 replicon (HuNoV GI replicon in HGT-1 cells, 72 h, replicon RNA by qRT-PCR) is listed as “low micromolar range”.

On to `O=C1NN(c2ccccc2)C(=O)/C1=C/c1ccc(-c2ccc(S(=O)(=O)Nc3ccccc3)cc2)o1` [Compound 1], for which the “inhibition of primed elongation activity (gel-shift)” value in the data set on HuNoV (GII.4) RdRp is given as “complete inhibition”. Besides, the CC50 in data set [3] was ~64 µM and 62.8 µM.
